# Test results published in patent US5972357A, “Healthy foods and cosmetics” (Kikkoman Corporation, priority 1996, dated 1999).
# What was measured:
# [1] = survival rate of the cells in the EBV-EA induction inhibiting test; format: cell-based; settings: human, raji cells, 8 μg/ml
# Procedure: (§1) The EBV potentially infected human lymphoblasts (Raji) were first prepared in a concentration of 5×10^5 cell/ml, and cultured in an RPMI-1640 medium to which 3 mM n-butyric acid (inducer) and 50 nM TPA (12-O-tetradecanoylphorbol-13-acetate) (promoter) were added in an atmosphere of 5% carbon dioxide and 95% air under at a temperature of 37° C. for 48 hours. The cells in which EBV-EA had been induced were detected microscopically by indirect immunofluorescence with the serum of a nasopharyngeal carcinoma (NPC) patient. In this system, various concentrations (8 μg/ml, 40 μg/ml, and 200 μg/ml) of the test substance (garcinol sample shown in Referential Example 1) dissolved in DMSO (dimethylsolfoxide) were added together with the promoter to the cells. The activity of suppressing the induction of the Epstein-Barr virus early antigen was defined as the decreasing rate of the cells in which EBV-EA had been induced.
# [2] = tested on: gastric ulcer; test: anti-ulcer test against indomethacin-induced gastric ulcer; format: in vivo, Wistar/ST male rats; settings: for Length of ulcer: 30 minutes before indomethacin (50 mg/kg s.c.), control 47.75 ± 6.08; for Suppression rate: indomethacin ulcer, vs. control
# Procedure: Ulcer was induced in Wistar/ST male rats having a weight of about 200 g (6 week-old) by indomethacin as a gastric ulcer inducing agent, and the anti-ulcer effects of the test samples were examined in the following six groups to which test samples were administered.
# Each group comprises six rats.
# ______________________________________
# Group 1: (control) physiological saline
# Group 2: (comparative) cetraxate hydrochloride
# Group 3: (the present invention) garcinol
# Group 4: (the present invention) garcinol
# Group 5: (the present invention) garcinol
# Group 6: (the present invention) isogarcinol
# In this connection, physiological saline containing 1% sodium carboxymethylcellulose was used as the control, and cetraxate hydrochloride (trade name "Neuer®S", Daiichi Pharmaceuticals Co., Ltd.) which is clinically used as an anti-ulcer agent was used as the comparative sample. The cetraxate hydrochloride insoluble in water was ground into fine powder with a mortar and a pestle and used as a suspension in a 1% sodium carboxymethylcellulose solution. Also, garcinol and isogarcinol in the form of fine powder were used as the suspensions in a 1% sodium carboxymethylcellulose solution in the concentrations which are the doses in the groups. In this connection, garcinol and isogarcinol used in the section of the present invention were those obtained in Referential Examples 1 and 2, respectively.
# Experiment was carried out according to the method described by Yamahara et al. (see […] ZASSHI, 114, 401, 1994) which had been slightly modified. That is to say, indomethacin (50 mg/kg) was suspended in 1% sodium carboxymethylcellulose containing 0.1% Tween 20 (Sigma) and injected subcutaneously into the back of 24 hour fasted rats in an amount of 1 ml/rat. The samples in the six sections were orally administered at 30 minutes before administration of indomethacin. After 7 hours from the administration of indomethacin, rats were bleeded to death under anesthetization with nembutal, and stomach was isolated. A phosphate buffer (10 ml) containing 10% formalin was injected into the stomach, which was cut open after 10 minutes, and the length of lesion caused in the glandular stomach portion was defined as the lesion index, which was measured in the mm unit to evaluate the anti-ulcer effect. The suppression rate (%) in Table 1 means the value in which the difference of the length (mm) of ulcer in each group subtracted from the average length, 47.75 (mm) of ulcer in the control was divided with the average length, 47.75 (mm) of ulcer in the control. The larger the value, the stronger the anti-ulcer activity.
# [3] = superoxide scavenging activity test with phenazine methosulfate; settings: 40 μM final concentration
# Procedure: The active oxygen scavenging activity was evaluated according to the superoxide scavenging activity test with phenazine methosulfate. That is to say, dihydronicotinamide adenine dinucleotide and phenazine methosulfate were first reacted in a buffer at a physiological hydrogen ion concentration. The absorbance at 560 nm of a formazan pigment produced by the reduction of Nitro Blue Tetrazolium with superoxide was measured. […] The ratio of decreases of absorbance was expressed as superoxide scavenging activity.
# [4] = tested on: bovine serum albumin; test: Maillard reaction inhibiting activity (bovine serum albumin/D-fructose); settings: 0.1 mM, 37° C., 5 days, pH 7.4
# Procedure: A solution containing bovine serum albumin (4 mg/ml), 500 mM D-fructose and 200 mM potassium phosphate buffer (pH 7.4) was aseptically prepared. To the solution was added 0.1 mM of a test substance. The substance insoluble in water was added as an ethanolic solution so as the final concentration of ethanol to be less than 1%. After incubation of these solutions at 37° C. for 5 days, equivalent volume of a cold 10% trichloroacetic acid solution was added to the solution to precipitate proteins. The precipitate was collected by centrifugation, further washed with a cold 5% trichloroacetic acid solution, and dissolved again in a 200 mM potassium phosphate buffer. The solution was diluted appropriately with distilled water, and the fluorescence intensity at 425 nm was measured with an excitation wave length at 350 nm in a fluorescence spectrophotometer (Shimadzu Seisakusho, Ltd.). The inhibition activity was calculated from the following equation.
# Inhibition activity (%)=(Fc-Fs)/(Fc-Fb)×100
# Fs: fluorescence intensity in the presence of test substance;
# Fc: fluorescence intensity in the absence of test substance;
# Fb: fluorescence intensity in the absence of fructose.
# [5] = DPPH radical scavenging activity
# Procedure: The 1,1-diphenyl-2-picrylhydrazyl (DPPH) radical scavenging activity was tested with a garcinol preparation prepared in the similar manner as described in Referential Example 1. That is to say, a 1.0×10^-4 M solution (50% ethanolic) of DPPH was prepared, 0.0002% of a test substance was added, and the decrease of optical density at 528 nm was measured after 1 hour reaction at 25° C. for one hour. In this case, ascorbic acid was used as a standard, the decrease of the absorbance was expressed as 100, and the radical scavenging activity of the test substance was measured as equivalences to ascorbic acid. In this connection, a garcinol preparaion used as the test substance, and vitamin E and (+)-catechin were used as references.
# [6] = tested on: Epstein-Barr virus early antigen (EBV-EA); test: EBV-EA induction inhibiting test (tumor promotion inhibition); format: cell-based, human lymphoblasts (Raji); settings: Homo sapiens, Raji; 8 μg/ml; 3 mM n-butyric acid, 50 nM TPA, 37° C., 48 hours; read-out: suppression of the induction of EBV-EA
# Procedure: The effect of inhibiting the tumor promotion was evaluated as follows mainly according to the EBV-EA induction inhibiting test described by Y. Ito et al.
# as §1
# [7] = tested on: bovine lens α-crystallin; test: α-crystallin crosslinking polymerization inhibiting activity; format: biochemical; settings: 0.1 mM, 500 mM D-fructose, pH 7.4, 37° C., 2 weeks
# Procedure: The effect of garcinol on bovine lens α-crystallin crosslinking polymerization reaction was evaluated. […] The gel after electrophoresis was stained with Coomassie Brilliant Blue, and the protein amounts in bands were determined with a densitometer. The crosslinking polymerization inhibiting activity of the protein was calculated from the following equation.
# Protein polymerization inhibiting activity (%)=(Ps-Pc)/Pc×100
# polymerization degree of protein=band density of polymerized protein/band density of monomer protein;
# Ps: polymerization degree of protein in the presence of test substance;
# Pc: polymerization degree of protein in the absence of test substance.
# [8] = tested on: mice; set-up: species or system ICR/crj male mice; settings: mouse, in vivo
# Procedure: ICR/crj male mice (5 week-old) having a weight of 29-32 g, each group comprising 5 animals.
# Toxicity test by single administration was carried out in accordance with Guidelines of the Toxicity Test Method for Pharmaceuticals (Nichi-Yaku-Shin No. 118, released on Feb. 15, 1984, Notice of Second Section Manager of Examination of Pharmaceutical Affairs Bureau in Ministry of Health and Welfare to the Managers of Hygiene Division of Prefectures).
# Garcinol was suspended into a physiological saline in a concentration of 30 mg/ml, and the suspension was administered orally to mice at a dose of 0.5 ml per 30 g of body weight (500 mg/kg of body weight) for observation for 14 days.
structure (smiles),measurement,setting,value
C=C(C)[C@@H](CC=C(C)C)C[C@@]12C[C@@H](CC=C(C)C)C(C)(C)[C@@](CC=C(C)C)(C(=O)C(C(=O)c3ccc(O)c(O)c3)=C1O)C2=O [garcinol],viability at 48 h,[1],≥ 80%
same,Length of ulcer,[2]; 50 mg/kg oral,5.75 ± 6.13 mm
same,Suppression rate,[2]; 50 mg/kg oral,88.0%
same,Length of ulcer,[2]; 100 mg/kg oral,4.00 ± 4.32 mm
same,Suppression rate,[2]; 100 mg/kg oral,91.6%
same,Length of ulcer,[2]; 200 mg/kg oral,3.00 ± 5.35 mm
same,Suppression rate,[2]; 200 mg/kg oral,93.7%
same,superoxide scavenging rate,[3],75%
same,Maillard reaction inhibition activity,[4],97%
same,DPPH radical scavenging activity (equivalences to ascorbic acid = 100),"[5]; 0.0002% test substance, 1.0×10^-4 M DPPH, 25° C., 1 hour, 528 nm",85
same,radical scavenging activity per unit weight relative to vitamin E,[5]; per unit weight of vitamin E,about three times
same,inhibition at 8 µg/mL,[6],58.2%
same,protein polymerization inhibiting activity,[7],68%
same,microscopic disorders in tissues or organs (autopsy),[8],no microscopic disorders in tissues or organs were observed
